Assays:
Ctenocephalides felis [1] = assay: Ctenocephalides felis in vitro contact test with adult cat fleas; assay type: in vivo; conditions: application rate 5 μg/cm^2 (=500 g/ha), after 48 h
Procedure: Ctenocephalides felis—In Vitro Contact Tests with Adult Cat Fleas
(§1) For the coating of the test tubes, 9 mg of active compound are first dissolved in 1 ml of acetone p.a. and then diluted to the desired concentration with acetone p.a. 250 μl of the solution are distributed homogeneously on the inner walls and the base of a 25 ml glass tube by turning and rocking on an orbital shaker (rocking rotation at 30 rpm for 2 h). With 900 ppm of active compound solution and internal surface area 44.7 cm^2, given homogeneous distribution, an area-based dose of 5 μg/cm^2 is achieved.
After the solvent has evaporated off, the tubes are populated with 5-10 adult cat fleas (Ctenocephalides felis), sealed with a perforated plastic lid and incubated in a horizontal position at room temperature and ambient humidity. After 48 h, efficacy is determined. To this end, the tubes are stood upright and the fleas are knocked to the base of the tube. Fleas which remain motionless at the base or move in an uncoordinated manner are considered to be dead or moribund.
100% efficacy means that all the fleas were dead or moribund. 0% efficacy means that no fleas were harmed.

Ctenocephalides felis [2] = assay: Ctenocephalides felis oral test; assay type: in vivo; conditions: application rate 100 ppm in citrated cattle blood; adult cat fleas; after 2 days
Procedure: Ctenocephalides felis—Oral Test
(§2) Solvent: dimethyl sulfoxide
To produce a suitable active compound formulation, 10 mg of active compound are mixed with 0.5 ml of dimethyl sulfoxide. Dilution with citrated cattle blood gives the desired concentration.
About 20 unfed adult cat fleas (Ctenocephalides felis) are placed into a chamber which is closed at the top and bottom with gauze. A metal cylinder whose bottom end is closed with parafilm is placed onto the chamber. The cylinder contains the blood/active compound formulation, which can be imbibed by the fleas through the parafilm membrane.
After 2 days, the kill in % is determined. 100% means that all of the fleas have been killed; 0% means that none of the fleas have been killed.

Lucilia cuprina = Lucilia cuprina test; assay type: in vivo; conditions: application rate 100 ppm; L1 larvae; after 2 days
Procedure: as §2
(§3) To produce a suitable active compound formulation, 10 mg of active compound are mixed with 0.5 ml of dimethyl sulfoxide, and the concentrate is diluted with water to the desired concentration.
About 20 L1 larvae of the Australian sheep blowfly (Lucilia cuprina) are transferred into a test vessel containing minced horsemeat and the active compound formulation of the desired concentration.
After 2 days, the kill in % is determined. 100% means that all the larvae have been killed; 0% means that no larvae have been killed.

Musca domestica = Musca domestica test; assay type: in vivo; conditions: application rate 100 ppm; adult houseflies; after 2 days
Procedure: as §2, §3
Vessels containing a sponge treated with sugar solution and the active compound formulation of the desired concentration are populated with 10 adult houseflies (Musca domestica).
After 2 days, the kill in % is determined. 100% means that all of the flies have been killed; 0% means that none of the flies have been killed.

Diabrotica balteata = Diabrotica balteata spray test; assay type: in vivo; conditions: application rate 160 μg/well, beetle larvae on germinated wheat grains, after 7 days
Procedure: Diabrotica balteata—Spray Test
(§4) Solvent: 78 parts by weight of acetone • • 1.5 parts by weight of dimethylformamide
(§5) Emulsifier: alkylaryl polyglycol ether
(§6) To produce a suitable active compound formulation, 1 part by weight of active compound is dissolved with the specified parts by weight of solvent and made up to the desired concentration with water containing an emulsifier concentration of 1000 ppm. To produce further test concentrations, the formulation is diluted with emulsifier-containing water.
Pre-swollen wheat grains (Triticum aestivum) are incubated in a multiwell plate filled with agar and a little water for one day (5 seed grains per well). The germinated wheat grains are sprayed with an active compound preparation of the desired concentration. Subsequently, each cavity is infected with 10-20 beetle larvae of Diabrotica balteata.
After 7 days, the efficacy in % is determined. 100% means that all maize plants have grown as in the untreated, uninfected control; 0% means that no maize plant has grown.

Myzus persicae [3] = assay: Myzus persicae oral test; assay type: in vivo; conditions: after 5 days
Procedure: Solvent: 100 parts by weight of acetone
To produce a suitable active compound formulation, 1 part by weight of active compound is dissolved with the stated parts by weight of solvent and made up to the desired concentration with water.
50 μl of the active compound formulation are transferred into microtitre plates and made up to a final volume of 200 μl with 150 μl of IPL41 insect medium (33%+15% sugar). Subsequently, the plates are sealed with parafilm, which a mixed population of green peach aphids (Myzus persicae) within a second microtitre plate is able to puncture and imbibe the solution.
(§7) After 5 days, the efficacy in % is determined. 100% means that all the aphids have been killed; 0% means that no aphids have been killed.

Myzus persicae [4] = assay: Myzus persicae spray test; assay type: in vivo; conditions: application rate 500 g/ha, Chinese cabbage leaf discs, after 5 days
Procedure: Myzus persicae—Spray Test
as §4, §5, §6
Discs of Chinese cabbage leaves (Brassica pekinensis) infested by all stages of the green peach aphid (Myzus persicae) are sprayed with an active compound formulation of the desired concentration.
as §7

Spodoptera frugiperda = Spodoptera frugiperda spray test; assay type: in vivo; conditions: application rate 500 g/ha; caterpillars on maize leaf discs; after 7 days
Procedure: Spodoptera frugiperda—Spray Test
(§8) Solvent: 78.0 parts by weight of acetone • • 1.5 parts by weight of dimethylformamide
as §5, §6
Leaf discs of maize (Zea mays) are sprayed with an active compound formulation of the desired concentration and, after drying, populated with caterpillars of the fall armyworm (Spodoptera frugiperda).
After 7 days, the efficacy in % is determined. 100% means that all the caterpillars have been killed; 0% means that no caterpillar has been killed.

Tetranychus urticae = Tetranychus urticae spray test, OP-resistant; assay type: in vivo; conditions: application rate 500 g/ha, bean leaf discs, after 6 days
Procedure: Tetranychus urticae—Spray Test, OP-Resistant
as §8, §5, §6
Discs of bean leaves (Phaseolus vulgaris) infested by all stages of the red spider mite (Tetranychus urticae) are sprayed with an active compound formulation of the desired concentration.
After 6 days, the efficacy in % is determined. 100% means that all the spider mites have been killed; 0% means that no spider mites have been killed.

Rhipicephalus sanguineus = Rhipicephalus sanguineus in vitro contact test with adults of the brown dog tick; assay type: in vivo; conditions: application rate 5 μg/cm^2 (=500 g/ha), adult dog ticks, after 48 h
Procedure: Rhipicephalus sanguineus—In Vitro Contact Tests with Adults of the Brown Dog Tick
as §1
After the solvent has evaporated off, the tubes are populated with 5-10 adult dog ticks (Rhipicephalus sanguineus), sealed with a perforated plastic lid and incubated in the dark in a horizontal position at room temperature and ambient humidity. After 48 h, efficacy is determined. To this end, the ticks are knocked to the base of the tube and, incubated on a heating plate at 45-50° C. for a maximum of 5 minutes. Ticks which remain motionless at the base or move in such an uncoordinated manner that they cannot purposely escape the heat by climbing upward are considered to be dead or moribund.
100% efficacy means that all the ticks were dead or moribund. 0% efficacy means that no ticks were harmed.

Phaedon cochleariae = Phaedon cochleariae spray test; assay type: in vivo; conditions: foliar, 168 h, application rate 500 g/ha, larvae on Chinese cabbage leaf discs, after 7 days, read-out: efficacy
Procedure: Phaedon cochleariae—Spray Test
as §8, §5, §6
Discs of Chinese cabbage leaves (Brassica pekinensis) are sprayed with an active compound formulation of the desired concentration and, after drying, populated with larvae of the mustard beetle (Phaedon cochleariae).
After 7 days, the efficacy in % is determined. 100% means that all the beetle larvae have been killed; 0% means that no beetle larvae have been killed.

[5] = log P by HPLC (EEC directive 79/831 Annex V.A8); assay type: physicochemical
Procedure: The log P values reported in the tables and preparation examples above were determined in accordance with EEC directive 79/831 Annex V.A8 by HPLC (High Performance Liquid Chromatography) using a reversed-phase column (C18). Temperature 43° C. The calibration is effected with unbranched alkan-2-ones (having 3 to 16 carbon atoms), for which the log P values are known.

Nezara viridula = Nezara viridula spray test; assay type: in vivo; conditions: application rate 500 g/ha; larvae on barley plants; after 4 days
Procedure: Nezara viridula—Spray Test
as §8, §5, §6
Barley plants (Hordeum vulgare) infected with larvae of the Southern green shield bug (Nezara viridula) are srayed with an active compound formulation of the desired concentration.
After 4 days, the efficacy in % is determined. 100% means that all of the shield bugs have been killed; 0% means that none of the shield bugs have been killed.

Nilaparvata lugens = Nilaparvata lugens test; assay type: in vivo; conditions: application rate 500 g/ha; rice plants; after 4 days
Procedure: as §8, §5, §6
Rice plants (Oryza sativa) are sprayed with the active compound formulation of the desired concentration and then infected with the brown planthopper (Nilaparvata lugens).
After 4 days, the efficacy in % is determined. 100% means that all of the planthoppers have been killed; 0% means that none of the planthoppers have been killed.

SMILES	efficacy (Ctenocephalides felis [1])	efficacy (kill in %) (Ctenocephalides felis [2])	efficacy (kill in %) (Lucilia cuprina)	efficacy (kill in %) (Musca domestica)	efficacy (Diabrotica balteata)	efficacy (Myzus persicae [3]; application rate 4 ppm)	efficacy (Myzus persicae [4])	efficacy (Tetranychus urticae)	also measured
O=C(c1c([O-])[n+]2ccccc2n1Cc1cnc(Cl)s1)C(F)(F)Cl [Example I-019]	100%	95%	95%	80%	100%	100%	100%		efficacy (Spodoptera frugiperda): 100%
CCN(CC)C(=O)C(=O)c1c([O-])[n+]2ccccc2n1Cc1cnc(Cl)s1 [Example I-040]							90%	100%	
COCCOC(=O)C(=O)c1c([O-])[n+]2ccccc2n1Cc1cnc(Cl)s1 [Example I-050]						100%	100%	90%	
Cc1ccc[n+]2c([O-])c(C(=O)C(F)(F)F)n(Cc3cnc(Cl)s3)c12 [Example I-024, 1-[(2-Chlorothiazol-5-yl)methyl]-8-methyl-2-(2,2,2-trifluoroacetyl)imidazo[1,2-a]pyridin-4-ium-3-olate]	100%	90%	100%						efficacy (Rhipicephalus sanguineus): 100%; pest or weed control at 160 µg/disc, 160 µg/well (Diabrotica balteata; Diabrotica balteata, 168 h, read-out: efficacy): 100%; pest or weed control at 4 ppm (Myzus persicae [3]; Myzus persicae, po, 120 h, application rate 4 ppm, read-out: efficacy): 100%; pest or weed control at 500 g/ha (Myzus persicae [4]; Myzus persicae, foliar, 120 h, read-out: efficacy): 90%; pest or weed control at 500 g/ha (Phaedon cochleariae): 100%; efficacy (Spodoptera frugiperda): 83%; chromatographic logP [5]: 2.07
CC(C)OC(=O)C(=O)c1c([O-])[n+]2ccccc2n1Cc1cnc(Cl)s1 [Example I-038]		80%	90%	100%		100%	90%		efficacy (Rhipicephalus sanguineus): 100%; efficacy (Rhipicephalus sanguineus; listed as 1-038): 80%
CCC(C)OC(=O)C(=O)c1c([O-])[n+]2ccccc2n1Cc1cnc(Cl)s1 (centres unmarked) [Example I-037]			95%	100%	100%	100%	100%	90%	
CN(C)C(=O)C(=O)c1c([O-])[n+]2ccccc2n1Cc1cnc(Cl)s1 [Example I-041]								90%	
O=C(OCC1CCC1)C(=O)c1c([O-])[n+]2ccccc2n1Cc1cnc(Cl)s1 [Example I-039]						100%	90%	90%	
CC(=O)c1c([O-])[n+]2ccccc2n1Cc1cnc(Cl)s1 [Example I-008]	100%				100%	100%	100%		efficacy (Myzus persicae [3]; application rate 20 ppm): 100%; efficacy (Nezara viridula): 90%; efficacy (Nilaparvata lugens): 100%

From patent US20200037600A1, “MESOIONIC IMIDAZOPYRIDINES AS INSECTICIDES” (Bayer Aktiengesellschaft, priority 2017, published 2020)
